Measurements published in US20040197396A1, “Anhydrous crystal form of valaciclovir hydrochloride” (priority 2001, published 2004).
Where a name gives a salt, the structure may show the parent alone.

Legend:
[1] = Water content by Karl Fisher titration; assay type: physicochemical; settings: Example 11 sample
Experimental: The water of hydration content is measured by the Karl Fischer method which is well known in the art and is described in the 1990 US Pharmacopoeia at pages 1619-1621, and the European Pharmacopoeia, second edition (1992) part 2, sixteenth fascicule at v. 3.5-6.1. Water content (by Karl Fisher titration): 0.61% w/w

[2] = Thermogravimetric analysis (TGA); assay type: physicochemical; settings: from 182-310° C.; scan rate 10° C. per minute
Experimental: Thermogravimetric analysis was carried out on a Perkin-Elmer Pyris-1 TGA system. Scan rate of 10° C. per minute. Sample size 3.757 mg. The TGA trace is provided at FIG. 6.

[3] = Stability and hygroscopicity of the crystal form (stated, no method); assay type: physicochemical; settings: statement in words
[4] = relative to acyclovir; statement in words; cited from earlier work

CC(C)[C@H](N)C(=O)OCCOCn1cnc2c(=O)[nH]c(N)nc21 [Form 2 Valaciclovir Hydrochloride, valaciclovir hydrochloride]
Water content (by Karl Fisher titration) [1]: 0.61 % w/w
Weight loss associated with melting/decomposition [2]: 42.97 % w/w
Hygroscopicity [3]: essentially non-hygroscopic
Stability of the crystal form [3]: stable

CC(C)[C@H](N)C(=O)OCCOCn1cnc2c(=O)[nH]c(N)nc21 [valaciclovir]
Bioavailability [4]: much improved bioavailability
